IC50 data for 25 molecules are collected here from US20230295142A1, “NOVEL COMPOUNDS AS HISTONE DEACETYLASE 6 INHIBITOR, AND PHARMACEUTICAL COMPOSITION COMPRISING THE SAME” (CHONG KUN DANG PHARMACEUTICAL CORP., priority 2020, published 2023).

For one assay, the target named is HDAC6 human recombinant (Homo sapiens (Human), UniProt Q9UBN7). The assay is described as follows: HDAC6 enzyme activity inhibition (fluorimetric, in vitro). The conditions noted are these: samples at 0.1, 1, 10, 100 and 1000 nM; 37° C. 60 minutes. It counts as biochemical. The protocol:
(§1) A HDAC enzyme inhibitory capacity of a test material was measured by using HDAC1 Fluorimetric Drug Discovery Assay Kit (Enzolifesciences: BML-AK511) and HDAC6 human recombinant (Calbiochem: 382180). For a HDAC1 assay, samples were treated at a concentration of 100, 1000 and 10000 nM. For a HDAC6 assay, samples were treated at a concentration of 0.1, 1, 10, 100 and 1000 nM. After the above sample treatment, a reaction was continued at 37° C. for 60 minutes, treated with a developer, and subjected to reaction at 37° C. for 30 minutes, after which fluorescence intensity (Ex 390, Em 460) was measured by using FlexStatin3 (Molecular device).

In the next assay the target is HDAC1 (Homo sapiens (Human), UniProt Q13547). The assay is described as follows: HDAC1 enzyme activity inhibition (HDAC1 Fluorimetric Drug Discovery Assay Kit). It counts as biochemical. To be noted: samples at 100, 1000 and 10000 nM; 37° C. 60 minutes. Here is the method: as §1

Broadly, the IC50 is the concentration at which inhibition is half-maximal.

Chain of HDAC1 (Q13547 whole entry): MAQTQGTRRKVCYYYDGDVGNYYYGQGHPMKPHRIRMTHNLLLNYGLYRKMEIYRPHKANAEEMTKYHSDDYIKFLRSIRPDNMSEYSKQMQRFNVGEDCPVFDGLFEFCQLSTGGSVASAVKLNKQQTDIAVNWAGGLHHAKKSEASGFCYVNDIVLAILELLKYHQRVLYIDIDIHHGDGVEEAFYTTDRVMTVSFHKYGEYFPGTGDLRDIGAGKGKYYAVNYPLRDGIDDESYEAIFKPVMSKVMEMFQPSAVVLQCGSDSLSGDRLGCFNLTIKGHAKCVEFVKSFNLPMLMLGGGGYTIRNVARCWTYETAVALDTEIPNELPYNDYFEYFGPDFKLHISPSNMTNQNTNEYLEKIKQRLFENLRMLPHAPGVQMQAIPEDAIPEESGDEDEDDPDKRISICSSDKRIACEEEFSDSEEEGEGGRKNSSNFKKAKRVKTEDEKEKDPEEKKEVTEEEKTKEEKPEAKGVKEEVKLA
Chain of HDAC6 human recombinant (Q9UBN7 whole entry): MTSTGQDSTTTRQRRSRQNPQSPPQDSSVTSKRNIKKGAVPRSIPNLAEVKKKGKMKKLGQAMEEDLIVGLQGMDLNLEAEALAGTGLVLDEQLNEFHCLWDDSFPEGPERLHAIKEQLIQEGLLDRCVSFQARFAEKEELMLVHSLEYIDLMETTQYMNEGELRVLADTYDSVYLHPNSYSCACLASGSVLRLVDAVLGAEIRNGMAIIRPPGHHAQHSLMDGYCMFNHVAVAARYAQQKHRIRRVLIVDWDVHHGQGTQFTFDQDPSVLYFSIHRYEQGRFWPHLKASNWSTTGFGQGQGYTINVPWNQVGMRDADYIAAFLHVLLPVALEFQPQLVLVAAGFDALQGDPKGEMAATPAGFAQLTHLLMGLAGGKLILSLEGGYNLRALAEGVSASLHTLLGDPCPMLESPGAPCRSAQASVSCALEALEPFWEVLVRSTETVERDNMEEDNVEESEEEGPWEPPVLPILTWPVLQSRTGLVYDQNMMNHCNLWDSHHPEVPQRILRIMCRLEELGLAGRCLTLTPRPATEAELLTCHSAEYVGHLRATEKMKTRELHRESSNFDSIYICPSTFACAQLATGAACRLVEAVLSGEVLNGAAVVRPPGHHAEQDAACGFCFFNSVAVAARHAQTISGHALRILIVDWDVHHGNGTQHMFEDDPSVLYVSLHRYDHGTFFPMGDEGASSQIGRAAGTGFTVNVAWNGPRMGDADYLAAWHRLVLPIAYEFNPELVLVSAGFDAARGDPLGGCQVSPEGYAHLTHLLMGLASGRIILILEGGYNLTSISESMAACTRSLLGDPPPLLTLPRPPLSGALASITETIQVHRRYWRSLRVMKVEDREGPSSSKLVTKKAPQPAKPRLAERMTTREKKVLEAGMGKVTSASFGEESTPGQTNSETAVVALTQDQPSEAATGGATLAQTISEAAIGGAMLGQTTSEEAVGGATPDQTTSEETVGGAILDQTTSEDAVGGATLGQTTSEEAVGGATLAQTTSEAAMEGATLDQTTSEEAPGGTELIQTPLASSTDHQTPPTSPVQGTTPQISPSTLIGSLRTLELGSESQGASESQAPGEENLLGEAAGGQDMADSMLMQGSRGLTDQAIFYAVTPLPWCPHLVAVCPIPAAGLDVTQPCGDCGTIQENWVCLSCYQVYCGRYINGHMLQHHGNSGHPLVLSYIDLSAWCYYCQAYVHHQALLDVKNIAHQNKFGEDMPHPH

For the molecule `CC1(C)C(=O)N(c2ccccc2)C(=O)N1Cc1ccc(-c2nnc(C(F)F)o2)cc1F` [Compound 1, 1-(4-(5-(difluoromethyl)-1,3,4-oxadiazol-2-yl)-2-fluorobenzyl)-5,5-dimethyl-3-phenylimidazolidin-2,4-dione], the values for the IC50 on HDAC6 human recombinant and against HDAC1 were 0.665 µM and greater than 10 µM, respectively.
Regarding `CC1(C)C(=O)N(c2ccccc2)C(=O)N1Cc1ccc(-c2nnc(C(F)(F)F)o2)cc1F` [Compound 2, 1-(2-fluoro-4-(5-(trifluoromethyl)-1,3,4-oxadiazol-2-yl)benzyl)-5,5-dimethyl-3-phenylimidazolidin-2,4-dione], the IC50 on HDAC6 human recombinant was 0.958 µM; against HDAC1 it was greater than 10 µM.
In the case of `O=C1CN(c2ccccc2)C(=O)N1Cc1ccc(-c2nnc(C(F)F)o2)cc1F` [Compound 3, 3-(4-(5-(difluoromethyl)-1,3,4-oxadiazol-2-yl)-2-fluorobenzyl)-1-phenylimidazolidin-2,4-dione], the figures for the IC50 on HDAC6 human recombinant and against HDAC1 were 0.219 µM and greater than 10 µM, respectively.
On the same counts, the results for `O=C1CN(c2ccccc2)C(=O)N1Cc1ccc(-c2nnc(C(F)F)o2)cn1` [Compound 4, 3-((5-(5-(difluoromethyl)-1,3,4-oxadiazol-2-yl)pyridin-2-yl)methyl)-1-phenylimidazolidin-2,4-dione] are 0.099 µM and greater than 10 µM.
In the same order, the values of `CC(C)(C)OC(=O)N1CCC2(CC1)C(=O)N(Cc1ccc(-c3nnc(C(F)F)o3)cn1)C(=O)N2c1cccc(F)c1` [Compound 5, tert-butyl 3-((5-(5-(difluoromethyl)-1,3,4-oxadiazol-2-yl)pyridin-2-yl)methyl)-1-(3-fluorophenyl)-2,4-dioxo-1,3,8-triazaspiro[4.5]decan-8-carboxylate] are 0.206 µM and greater than 10 µM.
In the same order, the values of `CN1CCC2(CC1)C(=O)N(Cc1ccc(-c3nnc(C(F)F)o3)cn1)C(=O)N2c1cccc(F)c1` [Compound 6, 3-((5-(5-(difluoromethyl)-1,3,4-oxadiazol-2-yl)pyridin-2-yl)methyl)-1-(3-fluorophenyl)-8-methyl-1,3,8-triazaspiro[4.5]decan-2,4-dione] are 0.104 µM and greater than 10 µM.
For `O=C1N(Cc2ccc(-c3nnc(C(F)F)o3)cn2)C(=O)C2(CCN(C3COC3)CC2)N1c1cccc(F)c1` [Compound 7, 3-((5-(5-(difluoromethyl)-1,3,4-oxadiazol-2-yl)pyridin-2-yl)methyl)-1-(3-fluorophenyl)-8-(oxetan-3-yl)-1,3,8-triazaspiro[4.5]decan-2,4-dione], the figures for the IC50 at HDAC6 human recombinant and against HDAC1 were 0.1 µM and greater than 10 µM, respectively.
For the molecule `CC(C)N1CCC2(CC1)C(=O)N(Cc1ccc(-c3nnc(C(F)F)o3)cn1)C(=O)N2c1cccc(F)c1` [Compound 8, 3-((5-(5-(difluoromethyl)-1,3,4-oxadiazol-2-yl)pyridin-2-yl)methyl)-1-(3-fluorophenyl)-8-isopropyl-1,3,8-triazaspiro[4.5]decan-2,4-dione], the IC50 at HDAC6 human recombinant was 0.099 µM; against HDAC1, greater than 10 µM.
On the same counts, the results for `O=C1CN(c2ccccc2)C(=O)N1Cc1ncc(-c2nnc(C(F)F)o2)cn1` [Compound 9, 3-((5-(5-(difluoromethyl)-1,3,4-oxadiazol-2-yl)pyrimidin-2-yl)methyl)-1-phenylimidazolidin-2,4-dione] are 0.147 µM and greater than 10 µM.
On the same counts, the results for `CC1(C)C(=O)N(Cc2ccc(-c3nnc(C(F)F)o3)cn2)C(=O)N1c1cccc(F)c1` [Compound 10, 3-((5-(5-(difluoromethyl)-1,3,4-oxadiazol-2-yl)pyridin-2-yl)methyl)-1-(3-fluorophenyl)-5,5-dimethylimidazolidin-2,4-dione] are 0.053 µM and greater than 10 µM.
On the same counts, the results for `CC1(C)C(=O)N(Cc2ccc(-c3nnc(C(F)F)o3)cn2)C(=O)N1c1cccc(Br)c1` [Compound 11, 1-(3-bromophenyl)-3-((5-(5-(difluoromethyl)-1,3,4-oxadiazol-2-yl)pyridin-2-yl)methyl)-5,5-dimethylimidazolidin-2,4-dione] are 0.056 µM and greater than 10 µM.
For `CC1(C)C(=O)N(Cc2ccc(-c3nnc(C(F)F)o3)cn2)C(=O)N1c1ccc(F)cc1` [Compound 12, 3-((5-(5-(difluoromethyl)-1,3,4-oxadiazol-2-yl)pyridin-2-yl)methyl)-1-(4-fluorophenyl)-5,5-dimethylimidazolidin-2,4-dione], the IC50 at HDAC6 human recombinant was 0.06 µM; against HDAC1, greater than 10 µM.
On the same counts, the results for `CC1(C)C(=O)N(Cc2ccc(-c3nnc(C(F)F)o3)cn2)C(=O)N1c1c(F)cccc1F` [Compound 13, 3-((5-(5-(difluoromethyl)-1,3,4-oxadiazol-2-yl)pyridin-2-yl)methyl)-1-(2,6-difluorophenyl)-5,5-dimethylimidazolidin-2,4-dione] are 0.027 µM and greater than 10 µM.
On the same counts, the results for `CC1(C)C(=O)N(Cc2ccc(-c3nnc(C(F)F)o3)cn2)C(=O)N1c1ccc(F)cc1F` [Compound 14, 3-((5-(5-(difluoromethyl)-1,3,4-oxadiazol-2-yl)pyridin-2-yl)methyl)-1-(2,4-difluorophenyl)-5,5-dimethylimidazolidin-2,4-dione] are 0.056 µM and greater than 10 µM.
In the same order, the values of `CC1(C)C(=O)N(Cc2ccc(-c3nnc(C(F)F)o3)cn2)C(=O)N1c1cccc(F)c1F` [Compound 15, 3-((5-(5-(difluoromethyl)-1,3,4-oxadiazol-2-yl)pyridin-2-yl)methyl)-1-(2,3-difluorophenyl)-5,5-dimethylimidazolidin-2,4-dione] are 0.043 µM and greater than 10 µM.
As to `CC1(C)C(=O)N(Cc2ccc(-c3nnc(C(F)F)o3)cn2)C(=O)N1c1ccc(F)c(F)c1` [Compound 16, 3-((5-(5-(difluoromethyl)-1,3,4-oxadiazol-2-yl)pyridin-2-yl)methyl)-1-(3,4-difluorophenyl)-5,5-dimethylimidazolidin-2,4-dione], the IC50 at HDAC6 human recombinant is 0.142 µM; at HDAC1 it was greater than 10 µM.
On the same counts, the results for `CC1(C)C(=O)N(Cc2ccc(-c3nnc(C(F)F)o3)cn2)C(=O)N1c1cc(F)cc(F)c1` [Compound 17, 3-((5-(5-(difluoromethyl)-1,3,4-oxadiazol-2-yl)pyridin-2-yl)methyl)-1-(3,5-difluorophenyl)-5,5-dimethylimidazolidin-2,4-dione] are 0.069 µM and greater than 10 µM.
For `CC1(C)C(=O)N(Cc2ccc(-c3nnc(C(F)F)o3)cn2)C(=O)N1c1ccccc1` [Compound 18, 3-((5-(5-(difluoromethyl)-1,3,4-oxadiazol-2-yl)pyridin-2-yl)methyl)-5,5-dimethyl-1-phenylimidazolidin-2,4-dione], the concentration for half-maximal inhibition (IC50) is 0.079 µM at HDAC6 human recombinant and greater than 10 µM against HDAC1.
On the same counts, the results for `CN1CC=C(c2cccc(N3C(=O)N(Cc4ccc(-c5nnc(C(F)F)o5)cn4)C(=O)C3(C)C)c2)CC1` [Compound 19, 3-((5-(5-(difluoromethyl)-1,3,4-oxadiazol-2-yl)pyridin-2-yl)methyl)-5,5-dimethyl-1-(3-(1-methyl-1,2,3,6-tetrahydropyridin-4-yl)phenyl)imidazolidin-2,4-dione] are 0.085 µM and greater than 10 µM.
With `CN1CCC(c2cccc(N3C(=O)N(Cc4ccc(-c5nnc(C(F)F)o5)cn4)C(=O)C3(C)C)c2)CC1` [Compound 20, 3-((5-(5-(difluoromethyl)-1,3,4-oxadiazol-2-yl)pyridin-2-yl)methyl)-5,5-dimethyl-1-(3-(1-methylpiperidin-4-yl)phenyl)imidazolidin-2,4-dione], the IC50 at HDAC6 human recombinant was 0.09 µM; on HDAC1 it was greater than 10 µM.
In the same order, the values of `CN1CC2(C1)C(=O)N(Cc1ccc(-c3nnc(C(F)F)o3)cn1)C(=O)N2c1ccccc1` [Compound 21, 7-((5-(5-(difluoromethyl)-1,3,4-oxadiazol-2-yl)pyridin-2-yl)methyl)-2-methyl-5-phenyl-2,5,7-triazaspiro[3.4]octan-6,8-dione] are 0.241 µM and greater than 10 µM.
On the same counts, the results for `CC(C)N1CC2(C1)C(=O)N(Cc1ccc(-c3nnc(C(F)F)o3)cn1)C(=O)N2c1ccccc1` [Compound 22, 7-((5-(5-(difluoromethyl)-1,3,4-oxadiazol-2-yl)pyridin-2-yl)methyl)-2-isopropyl-5-phenyl-2,5,7-triazaspiro[3.4]octan-6,8-dione] are 0.191 µM and greater than 10 µM.
As to `CC(=O)N1CC2(C1)C(=O)N(Cc1ccc(-c3nnc(C(F)F)o3)cn1)C(=O)N2c1ccccc1` [Compound 23, 2-acetyl-7-((5-(5-(difluoromethyl)-1,3,4-oxadiazol-2-yl)pyridin-2-yl)methyl)-5-phenyl-2,5,7-triazaspiro[3.4]octan-6,8-dione], the IC50 on HDAC6 human recombinant is 0.369 µM; against HDAC1, greater than 10 µM.
For the molecule `O=C1N(Cc2ccc(-c3nnc(C(F)F)o3)cn2)C(=O)C2(CCC2)N1c1ccccc1` [Compound 24, 7-((5-(5-(difluoromethyl)-1,3,4-oxadiazol-2-yl)pyridin-2-yl)methyl)-5-phenyl-5,7-diazaspiro[3.4]octan-6,8-dione], the results for the half-inhibitory concentration (IC50) at HDAC6 human recombinant and against HDAC1 were 0.056 µM and greater than 10 µM, respectively.
In the case of `CC1(C)C(=O)N(Cc2ccc(-c3nnc(C(F)F)o3)cn2)C(=O)N1c1ccc(-c2ccoc2)cc1` [Compound 25, 3-((5-(5-(difluoromethyl)-1,3,4-oxadiazol-2-yl)pyridin-2-yl)methyl)-1-(4-(furan-3-yl)phenyl)-5,5-dimethylimidazolidin-2,4-dione], the figures for the IC50 at HDAC6 human recombinant and against HDAC1 were 0.106 µM and greater than 10 µM, respectively.
